Measurements taken from US20250034182A1, “PHOSPHOLIPID COMPOUNDS AND METHODS OF MAKING AND USING THE SAME” (priority 2021, published 2025).

What was measured:
Assay type in all cases: cell-based
[1] = system: Respiratory syncytial virus recombinant with luciferase (RSV-Luc5) in HEp-2 cells; assay: HEp-2 RSV-Luc5 384-well assay (EC50 RSVFLUC Hep2-384, Example R); conditions: human respiratory syncytial virus, HEp-2, 72 h, read-out: RSV Hep-2 FLuc EC50 (nM) (per Ex. R)
Text: (§1) HEp-2 cell line was purchased from ATCC (Manassas, VA Cat #CCL-23) and maintained in Dulbecco's […] (DMEM) (Corning, New York, NY, Cat #15-018CM) supplemented with 10% fetal bovine serum (FBS) (Hyclone, Logan, UT, Cat #SH30071-03) and 1× Penicillin-Streptornycin-L-Glutamine (Corning, New York, NY, Cat #30-009-CI). Cells were passaged 2 times per week to maintain sub-confluent densities and were used for experiments at passage 5-20. Respiratory syncytial virus recombinant with luciferase (RSV-Luc5) direct pelleted virus (≥1×107 TCID50/ml) was purchased from Microbiologics (Saint Cloud, MN). Viral replication was determined in HEp-2 cells in the following manner.
Compounds are prepared in 384-well polypropylene plates (Greiner, Monroe, NC, Cat #784201) with 8 compounds per plate in grouped replicates of 4 at 10 serially diluted concentrations (1:3).
HEp-2 cells were suspended in DMEM (supplemented with 10% FBS and 1×Penicillin-Streptonycin-L-Glutimine) and 60 μL of 4,000 cells per well were seeded into 384-well plates (Greiner, Monroe, NC, Cat #781080) using Biotek MultiFlo dispenser. After overnight incubation at 37° C. and 5% CO2, 0.4 uL of three-fold serial dilutions of compound was added to each well using a Biomek FX pipette station. RSV-Luc5 viruses were diluted in DMEM (supplemented with 10% FBS and 1× Penicillin-Streptonycin-L-Glutainie) at an MOI=0.5. Virus suspension was added to each 384-well compound plate at 20 uL per well using a Biotek MultiFlo dispenser. The assay plates were incubated for 3 days at 37° C. and 5% CO2. At the end of incubation, One-Glo reagent (Promega, Madison, WI, Cat #E6120) was prepared. The assay plate and the reagent were equilibrated to room temperature for 30 minutes. 50 uL per well of medium was removed from assay plate and 40 uL per well of One-Glo reagent was added to each plate by Biomek FX. The plates were sat at room temp for 15 minutes. Viral replication was then assessed by measuring luminescence signal using and Envision plate reader. Remdesivir was used as positive control and DMSO was used as negative control. Values were normalized to the positive and negative controls (as 0% and 100% replication, respectively) and data was fitted using non-linear regression analysis by Gilead's dose response tool. The EC50 value for each compound was then determined as the concentration reducing the viral replication by 50%.

[2] = system: Respiratory syncytial virus recombinant with luciferase (RSV-Luc5) in HEp-2 cells; assay: HEp-2 RSV-Luc5 384-well assay (EC50 RSVFLUC Hep2-384 v2, Example V); conditions: human respiratory syncytial virus, HEp-2, 72 h, read-out: RSV Hep-2 FLuc EC50 (v2) (nM) (per Ex. V)
Text: as §1, with “Penicillin-Streptonycin-L-Glutamine” for “Penicillin-Streptornycin-L-Glutamine”, “(RSV-Luc5)” for “(RSV-Luc5) direct pelleted virus”
Compounds are prepared in 100% DMSO in 384-well polypropylene plates (Greiner, Monroe, NC, Cat #784201) with 8 compounds per plate in grouped replicates of 4 at 10 serially diluted concentrations (1:3). The serially diluted compounds were transferred to low dead volume Echo plates (Labcyte, Sunnyvale, CA, Cat #LP-0200).
The test compounds were spotted to 384-well assay plates (Greiner, Monroe, NC, Cat #781091) at 200 nL per well. HEp-2 cells were harvested and suspended in DMEM (supplemented with 10% FBS and 1× Penicillin-Streptomycin-L-Glutamine) and seeded to the pre-spotted assay plates at 4,000 cells per well in 30 μL. RSV-Luc5 viruses were diluted in DMEM (supplemented with 10% FBS and 1× Penicillin-Streptomycin-L-Glucamine) at 200,000 Infectious Units (IU) per mL and 10 μL per well was added to the assay plates containing cells and compounds, for an MOI=0.5. The assay plates were incubated for 3 days at 37° C. and 5% CO2. At the end of incubation, One-Glo reagent (Promega, Madison, WI, Cat #E6120) was prepared. The assay plates and One-Glo reagent were equilibrated to room temperature for at least 15 minutes. 40 μL per well of One-Glo reagent was added and the plates were incubated at room temp for 15 minutes before reading the luminescence signal on an EnVision multimode plate reader (Perkin Elmer, Waltham, MA). Remdesivir was used as positive control and DMSO was used as negative control. Values were normalized to the positive and negative controls (as 0% and 100% replication, respectively) and data was fitted using non-linear regression analysis by Gilead's dose response tool. The EC50 value for each compound was then determined as the concentration reducing the viral replication by 50%.

[3] = RSV HEP2-CC50-384-V2 (per Ex. V); conditions: human
[4] = system: Recombinant Respiratory Syncytial virus strain A2 containing the firefly luciferase reporter (RSV-Fluc) in NHBE cells; assay: RSV NHBE FLuc EC50 (Example I); conditions: human respiratory syncytial virus, 72 h, read-out: RSV NHBE FLuc EC50 (nM) (per Ex. I)
Text: Normal human bronchial epithelial (NHBE) cells are purchased from Lonza (Walkersville, MD Cat #CC-2540) and maintained in Bronchial Epithelial Cell Growth Medium (BEGM) (Lonza, Walkersville, MD, Cat #CC-3170) with all provided supplements in the BulletKit. Cells are passaged 2-3 times per week to maintain sub-confluent densities and are used for experiments at passages 2-4.
Recombinant Respiratory Syncytial virus strain A2 containing the firefly luciferase reporter between the P and M genes (RSV-Fluc, 6.3×10^6 TCID50/mL) is purchased from Viratree (Durham, NC, Cat #R^145).
NHBE cells (5×10^3/well) are seeded in 100 μL white wall/clear bottom 96-well plates (Corning) with culture medium and are incubated for 24 hours at 37° C. with 5% CO2. On the following day, three-fold serial dilutions of compounds prepared in DMSO are added to the wells using the HP D300e digital dispenser with normalization to the highest concentration of DMSO in all wells. The cells are then infected with RSV-Fluc diluted with BEGM media at an MOI of 0.1 for a final volume of 200 μL media/well. Uninfected and untreated wells are included as controls to determine compound efficacy against RSV-Fluc. Following incubation with compound and virus for three days at 37° C. with 5% CO2, 100 μL of culture supernatant is removed from each well and replaced with 100 μL of ONE-Glo luciferase reagent (Promega, Madison, WI, Cat #E6110). The plates are gently mixed by rocking for 10 minutes at 21° C. and luminescence signal is measured using an Envision plate reader (PerkinElmer). Values are normalized to the uninfected and infected DMSO controls (0% and 100% infection, respectively). Non-linear regression analysis is applied to determine the compound concentration at which 50% luminescence signal is reduced (EC50) using the XLfit4 add-in for MICROSOFT®EXCEL®. All experiments are performed in duplicate with two technical repeats each.

Row | Structure (SMILES) | EC50 [1] [nM] | EC50 [2] [nM] | CC50 at 3 days [3] [nM] | EC50 [4] [nM]
1 | CCCCCCCCCCCCCCCCCCOC[C@H](COP(=O)(O)OC[C@@]1(C#N)O[C@@H](c2ccc3c(N)ncnn23)[C@H](O)[C@@H]1O)OCc1ccc(OC)c(C#N)c1 [Compound 9, ((2R,3S,4R,5S)-5-(4-aminopyrrolo[2,1-f][1,2,4]triazin-7-yl)-2-cyano-3,4-dihydroxytetrahydrofuran-2-yl)methyl ((R)-2-((3-cyano-4-methoxybenzyl)oxy)-3-(octadecyloxy)propyl) hydrogen phosphate] | 53 | 145 | > 48500 | –
2 | CCCCCCCCCCCCCCCCCCC[C@H](COP(=O)(O)OC[C@@]1(C#N)O[C@@H](c2ccc3c(N)ncnn23)[C@H](O)[C@@H]1O)OCc1ccc(C#N)c(OC)c1 [Compound 27, ((2R,3S,4R)-5-(4-aminopyrrolo[2,1-f][1,2,4]triazin-7-yl)-2-cyano-3,4-dihydroxytetrahydrofuran-2-yl)methyl ((R)-2-((4-cyano-3-methoxybenzyl)oxy)henicosyl) hydrogen phosphate] | 232 | – | – | 42
3 | CCCCCCCCCCCCCCCCCCOC[C@H](COP(=O)(O)OC[C@@]1(C#N)O[C@@H](c2ccc3c(N)ncnn23)[C@H](O)[C@@H]1O)Oc1cccc(C#N)c1 [Compound 50, ((2R,3S,4R,5S)-5-(4-aminopyrrolo[2,1-f][1,2,4]triazin-7-yl)-2-cyano-3,4-dihydroxytetrahydrofuran-2-yl)methyl ((R)-2-(3-cyanophenoxy)-3-(octadecyloxy)propyl) hydrogen phosphate] | 12 | 91 | > 50000 | 18
4 | CCCCCCCCCCCCCCCCCCOC[C@H](COP(=O)(O)OC[C@@]1(C#N)O[C@@H](c2ccc3c(N)ncnn23)[C@H](O)[C@@H]1O)OCc1cncc(C#N)c1 [Compound 66, ((2R,3S,4R)-5-(4-aminopyrrolo[2,1-f][1,2,4]triazin-7-yl)-2-cyano-3,4-dihydroxytetrahydrofuran-2-yl)methyl ((R)-2-((5-cyanopyridin-3-yl)methoxy)-3-(octadecyloxy)propyl) hydrogen phosphate] | 21 | 56 | 49100 | 50
5 | CCCCCCCCCCCCCCCCCCOC[C@@H](COP(=O)(O)OC[C@@]1(C#N)O[C@@H](c2ccc3c(N)ncnn23)[C@H](O)[C@@H]1O)OCc1ccc(C#N)cc1OC [Compound 67, ((2R,3S,4R)-5-(4-aminopyrrolo[2,1-f][1,2,4]triazin-7-yl)-2-cyano-3,4-dihydroxytetrahydrofuran-2-yl)methyl ((S)-2-((4-cyano-2-methoxybenzyl)oxy)-3-(octadecyloxy)propyl) hydrogen phosphate] | 229 | – | – | 28
6 | CCCCCCCCCCCCCCOC[C@H](COP(=O)(O)OC[C@@]1(C#N)O[C@@H](c2ccc3c(N)ncnn23)[C@H](O)[C@@H]1O)Oc1ccc(C#N)nc1 [Compound 77, ((2R,3S,4R)-5-(4-aminopyrrolo[2,1-f][1,2,4]triazin-7-yl)-2-cyano-3,4-dihydroxytetrahydrofuran-2-yl)methyl ((R)-2-((6-cyanopyridin-3-yl)oxy)-3-(tetradecyloxy)propyl) hydrogen phosphate] | 222 | 90 | > 50000 | 12
